According to US20090196930A1, “AEROSOLIZED NITRITE AND NITRIC OXIDE -DONATING COMPOUNDS AND USES THEREOF” (Aires Pharmaceuticals, Inc., priority 2007, published 2009):
Where two headings read alike, the source gives them in different places.

How the values were obtained:
[1] = tested on: normal, healthy volunteers; settings: human, device loaded sodium nitrite
Protocol: Vial 3 contained 0.1 mM sodium phosphate only. In the preliminary dose escalation to the maximum tolerated dose (MTD), immediately prior to administration, an equal portion of Vial 1 and Vial 2 were admixed and then diluted with Vial 3 contents as appropriate to achieve lower concentration dosing solutions for the dose-escalation protocol. Following establishment of the Vial 1+Vial 2 admixed test material MTD, additional dosing cohorts of 3 subjects were enrolled at the Vial 1+Vial 2 MTD, using Vial 3-diluted Vial 1 contents only.
Each subject also received vehicle control. The nebulizer used for this study was the Aerogen Idehaler. The Aerogen Idehaler is a combination of two units. The nebulization head is the Aeroneb® Solo (Aerogen, Galway, Ireland) and the aerosol-reservoir attachment Idehaler™ (Diffusion Technique Francais, Saint Etienne, France).

[2] = for VMD: n = 6, mean ± sd
Protocol: It was evaluated in tidal breathing mode (TBM) only.
The output characteristics of the three nebulizers (one of each type) were measured to determine the particle size distribution, inspired dose, residual dose, nebulizer output and duration of nebulization. The nebulizer efficiency, defined as the inhaled fine particle dose as a percent of the total loaded dose, was also determined. Each nebulizer was studied in duplicate, for a total of 6 measures per device type.
Particle Sizing. Nebulizers were weighed dry, full, and at the end of each study to determine gravimetric output and residual volume. Nebulizers were connected to the inhalation cell of the Insitec Laser (Malvern Instruments Ltd, Malvern, Worcestershire, UK) using a flexible airtight connector. The nebulizer and inhalation cell were oriented in a horizontal position. The output end of the inhalation cell was connected to a vacuum generator providing a continuous flow of 20 LPM across the laser beam. For measurements made with the I-neb, the output end of the inhalation cell was connected to a breath simulator, which permitted cyclic particle size measurements using the following breathing pattern: Rate=15 bpm, Volume=500 mL, I.T=2.0 seconds. This is the breathing pattern used for the output studies as well.
Each study was timed from the beginning of nebulization and run for a total of 2 minutes. During the first minute, no measurements were made to allow for equilibration of the solution. Particle sizing was begun and analyzed continuously for the duration of the 2nd minute. All data points were averaged for each measure.
1. VMD: Volume Median Diameter
2. GSD: Geometric Standard Deviation
3. %<3p: The percent of particles <3 microns
4. %<5p: The percent of particles <5 microns
5. Duration: Two minute total cycle time

Sprague-Dawley rats = experiment: 7-day inhalation dose range finding toxicology, rat
Protocol: Formulations. […] The formulations defined below were titrated by nebulization time to achieve the dose levels define in Table 21.
Results & Discussion (Rats). A 7-Day range-finding study with nebulized Formulation I Inhalation Solution was performed via inhalation through the nose of male and female Sprague-Dawley rats.

[3] = tested on: monocrotaline-induced pulmonary hypertension; settings: for RV:LV + S: MCT 50 mg/kg sc, three times per week for four weeks
in vivo = settings: rat, plasma
Protocol: Rats (n=3-4/group, ˜400 gm) were anesthetized with Isoflorane and the dry powder was insufflated intratracheally using a Penn-Century Insufflator (model DP-4: Philadelphia, Pa.). Blood was collected in heparinized tubes just prior to dosing, 5, 15, 30 and 60 minutes after dosing, immediately put on wet ice and then centrifuged at 13,000 rpm in a microcentrifuge for 45 sec. Plasma was harvested and frozen at −80° C. until analysis.

beagle dogs = experiment: 7-day inhalation dose range finding toxicology, dog; format: in vivo
Protocol: Results & Discussion (Dogs). […] Dogs were exposed to either vehicle (citric acid/saccharin/sodium phosphate buffer), or Formulation I Inhalation Solution prepared in identical vehicle to achieve target doses of 2, 10 or 44 mg/kg/day for 7 days (Table 21). Administered doses were 2, 12 and 54 mg/kg/day. […] Methemoglobin levels in blood increased appreciably in the high-dose group and minimally above basal levels in the mid-dose group (Table 23). Gross necropsies of the treated groups were in general similar to controls which included the presence of small red foci in the lung area, were few in nature and not associated with a dose responsive test-article relationship. Histopathology included mild focal pneumonia with minimal to mild focal peribronchiolar/perivascular mononuclear cell infiltrate and minimal to mild focal alveolar mixed cell infiltrate in the lungs of both the vehicle and high dose groups (low- and mid-dose groups not examined). M/E ratios were decreased in high-dose group males. […] Therefore, based on the transient changes during this 7 day study, an NOAEL of 12 mg/kg/day was established.

[4] = tested on: monocrotaline-induced pulmonary hypertension; experiment: Monocrotaline model of pulmonary hypertension, inhaled nebulized liquid sodium nitrite; settings: rat, 5 μg/kg liquid aerosol
[5] = tested on: hypoxia-induced pulmonary hypertension; settings: cited from earlier work
[6] = 101 mg/kg/day inhaled (dose lowered after day 1)
[7] = high dose group after lowering of dose, printed (76)
[8] = inhaled or intranasal, 90 ug/kg
[9] = inhaled or intranasal, 700 ug/kg

## O=NO [sodium nitrite]
[1]
  well tolerated doses: less than or equal to 125 mg
Isolated rabbit lungs; 16.7 mg/mL sodium nitrite in phosphate buffer or phosphate/citric acid buffer, 5 min nebulization
  hypoxia-induced elevated PAP: significantly reduced
Isolated rabbit lungs; both sodium nitrite preparations (phosphate buffer; citric acid/phosphate buffer)
  expired nitric oxide compared to control: significantly increased
Isolated rabbit lungs; mg sodium nitrite (2.8 mg nitrite)
  lung-delivered dose up to which lung weights (edema) were stable: up to 4.2 mg
Isolated rabbit lungs; sodium nitrite in phosphate buffer or citric acid/phosphate buffer, nebulized during second hypoxic challenge (3% oxygen), p<0.05
  decrease of PAP compared with pre-drug hypoxic challenge: over 50%
Isolated rabbit lungs; sodium nitrite in phosphate buffer, nebulized during third hypoxic challenge
  half life of effect on hypoxia-induced PAP: ~10 min
[2]; Aeroneb Go
  GSD: 2.1 ± 0.1
  VMD: 4.6 ± 0.1
[2]; I-neb
  GSD: 1.8 ± 0.1
  VMD: 4.8 ± 0.5
[2]; PARI STAR
  GSD: 2.8 ± 0.1
  VMD: 1.7 ± 0.1
Sprague-Dawley rats; 4 mg/kg/day inhaled
  Mortality (%) Female: 0%
  Mortality (%) Male: 0%
  Peak MetHgb (%) On Day 1 Female: 1.0 ± 0.1%
  Peak MetHgb (%) On Day 1 Male: 1.0 ± 0.0%
  Peak MetHgb (%) On Day 7 Female: 1.3 ± 0.1%
  Peak MetHgb (%) On Day 7 Male: 1.0 ± 0.0%
Sprague-Dawley rats; 18 mg/kg/day inhaled
  Mortality (%) Female: 0%
  Mortality (%) Male: 0%
  Peak MetHgb (%) On Day 1 Female: 4.5 ± 1.2%
  Peak MetHgb (%) On Day 1 Male: 3.4 ± 0.3%
  Peak MetHgb (%) On Day 7 Female: 3.8 ± 0.6%
  Peak MetHgb (%) On Day 7 Male: 2.3 ± 0.2%
Sprague-Dawley rats; 101 mg/kg/day inhaled
  Peak MetHgb (%) On Day 1 Female: 50 ± 3.0%
  Peak MetHgb (%) On Day 1 Male: 41 ± 3.3%
Sprague-Dawley rats; [6]
  Mortality (%) Female: 30%
  Mortality (%) Male: 0%
Sprague-Dawley rats; Group 2 Low Dose
  % of particles < 3 μm: 97.6%
  MMAD: 1.0 μm
Sprague-Dawley rats; Group 3 Mid Dose
  % of particles < 3 μm: 87.6%
  MMAD: 1.4 μm
Sprague-Dawley rats; Group 4 High Dose
  % of particles < 3 μm: 78.5%
  MMAD: 1.7 μm
Sprague-Dawley rats; [7]
  Peak MetHgb (%) On Day 7 Female: 36 ± 3.0 %
  Peak MetHgb (%) On Day 7 Male: 16 ± 4.7 %
[3]; dry powder 1 μg/kg intratracheal
  RV:LV + S: 0.363 ± 0.029
[3]; dry powder 10 μg/kg intratracheal
  RV:LV + S: 0.328 ± 0.025
[3]; high dose (10 μg/kg), p<0.05
  decrease of RV:LV+S: up to 48%
In vivo; [8]
  AUC: 15.8 ng·h/mL
  Cmax: 1800 nM
  Tmax: 5 min
  half-life: 4 min
In vivo; [9]
  AUC: 292 ng·h/mL
  Cmax: 25800 nM
  Tmax: 5 min
  half-life: 10 min
In vivo; other: intratracheal insufflation of dry powder, 10 ug/kg
  Cmax: ~200 nM
Beagle dogs; 2 mg/kg/day inhaled
  Mortality (%) Female: 0%
  Mortality (%) Male: 0%
  Peak MetHgb (%) On Day 1 Female: 0.35 ± 0.4%
  Peak MetHgb (%) On Day 1 Male: 0.2 ± 0.1%
  Peak MetHgb (%) On Day 7 Female: 0.2 ± 0.0%
  Peak MetHgb (%) On Day 7 Male: 0.2 ± 0.0%
Beagle dogs; 12 mg/kg/day inhaled
  Mortality (%) Female: 0%
  Mortality (%) Male: 0%
  Peak MetHgb (%) On Day 1 Female: 3.4 ± 1.3%
  Peak MetHgb (%) On Day 1 Male: 2.6 ± 0.5%
  Peak MetHgb (%) On Day 7 Female: 1.6 ± 0.2%
  Peak MetHgb (%) On Day 7 Male: 2.1 ± 0.5%
Beagle dogs; 54 mg/kg/day inhaled
  Mortality (%) Female: 0%
  Mortality (%) Male: 0%
  Peak MetHgb (%) On Day 1 Female: 19 ± 0.5%
  Peak MetHgb (%) On Day 1 Male: 16 ± 5.2%
  Peak MetHgb (%) On Day 7 Female: 17 ± 2.6%
  Peak MetHgb (%) On Day 7 Male: 16 ± 3.2%
Beagle dogs; Group 2 Low Dose
  % of particles < 3 μm: 86.2%
  MMAD: 1.2 μm
Beagle dogs; Group 3 Mid Dose
  % of particles < 3 μm: 73.9%
  MMAD: 1.7 μm
Beagle dogs; Group 4 High Dose
  % of particles < 3 μm: 73.3%
  MMAD: 1.9 μm
[4]
  plasma nitrite, extrapolated: ~0.1 µM
[5]; after 20 minutes inhalation
  NO in expired air, peak: approximately 15 ppb
[5]; newborn lambs, inhaled nitrite 15 mg/minute
  reduction in hypoxia-induced pulmonary hypertension compared with saline nebulization: approximately 65%
[5]; newborn lambs
  minimal effective dose: 1.5 mg/min
  time reduction in PAP was maintained after cessation of inhalation: at least 1 hour
